Some test systems named below: HOP-92 NSCLC; SN12C renal; A549 NSCLC; EKVX NSCLC; SK-MEL-28 melanoma; NCI-H522 lung; OVCAR-3 ovarian; OVCAR-8 ovarian; SF-295 CNS; MDA-MB-231 breast; PC-3 prostate; NCI/ADR-RES ovarian; BT-549 breast.
Common to all, as to assay: growth of human tumour cells (NCI), 48 h

We go through 14 molecules from PubChem BioAssay (NCI).

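Where inhibition never reached the appropriate level, the endpoint shown equals the highest concentration tested. Otherwise, values were interpolated linearly from a five-concentration, 48-hour dose response in 96-well plates. Definition used: TGI = concentration required for complete inhibition of growth.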

For the molecule `CC1(Br)S(=O)(=O)OCCOS1(=O)=O`, the TGI with HOP-92 NSCLC, with SN12C renal, in the assay on A549 NSCLC, with EKVX NSCLC, with SK-MEL-28 melanoma and with NCI-H522 lung was above 100 µM each time. Also, the TGI in the assay with OVCAR-3 ovarian, in the assay on OVCAR-8 ovarian and with SF-295 CNS was above 100 µM in each case.

Regarding `C=CC(Br)(CBr)CCC(Br)C(C)(C)Br` (centres undefined), the TGI in the assay on HOP-92 NSCLC was 29.9 µM; in the assay with SN12C renal, 29.7 µM; in the assay on A549 NSCLC, 29.8 µM; with SK-MEL-28 melanoma it was 29.8 µM; in the assay on NCI-H522 lung, 30.1 µM; in the assay on OVCAR-8 ovarian it was 30.1 µM. The TGI with SF-295 CNS turned out to be 16 µM.

Take `OC1=CN=C(C2CC2)Oc2ccccc21`: the TGI in the assay with HOP-92 NSCLC, in the assay on SN12C renal, in the assay with A549 NSCLC, in the assay with EKVX NSCLC, in the assay on SK-MEL-28 melanoma and in the assay on OVCAR-3 ovarian was above 100 µM throughout. The TGI with OVCAR-8 ovarian and in the assay on SF-295 CNS was above 100 µM each time.

In the case of `c1csc(-c2sc(-c3ccsc3)cc2Cc2ccsc2)c1`, the TGI in the assay with HOP-92 NSCLC, with MDA-MB-231 breast, in the assay on PC-3 prostate, in the assay with SN12C renal, with A549 NSCLC and in the assay with EKVX NSCLC was above 10 µM throughout. Also, the TGI in the assay with SK-MEL-28 melanoma, in the assay with OVCAR-8 ovarian and with SF-295 CNS was above 10 µM throughout.

For `CN(C)C=NCc1ccc2c(c1)OCO2`, the TGI with HOP-92 NSCLC, with MDA-MB-231 breast, in the assay on PC-3 prostate, in the assay with SN12C renal, in the assay with A549 NSCLC and with NCI/ADR-RES ovarian was above 100 µM throughout. In addition, the TGI with EKVX NSCLC, in the assay with SK-MEL-28 melanoma, in the assay with NCI-H522 lung, with OVCAR-3 ovarian, with OVCAR-8 ovarian and in the assay on SF-295 CNS was above 100 µM each time.

Turning to `Cc1ccc(S(=O)(=O)C(C#N)c2nc3ccccc3nc2N2CCOCC2)cc1` (centres undefined), the TGI is 96.4 µM in the assay with SN12C renal; above 100 µM with A549 NSCLC; above 100 µM with EKVX NSCLC; 51.9 µM in the assay on SK-MEL-28 melanoma; 37.3 µM with NCI-H522 lung; 91.6 µM in the assay on OVCAR-3 ovarian.

Turning to `COc1ccc(C(=O)/C=C/c2ccc(OCC#N)cc2)cc1OC`, the TGI in the assay on HOP-92 NSCLC was 44.3 µM; in the assay on MDA-MB-231 breast, 42.2 µM; with SN12C renal, 32.3 µM; with A549 NSCLC, above 100 µM; in the assay on NCI/ADR-RES ovarian, 50.2 µM; with EKVX NSCLC, 36 µM. Moreover, the TGI in the assay with BT-549 breast was 30 µM; in the assay with SK-MEL-28 melanoma, 29.5 µM; in the assay with NCI-H522 lung it was 32.5 µM; in the assay on OVCAR-3 ovarian, 49.1 µM; with OVCAR-8 ovarian, above 100 µM.

As for `COC(=O)NN/C=C(\C=Nc1ccccc1)[N+](=O)[O-]`, the TGI in the assay on HOP-92 NSCLC, in the assay with SN12C renal, with A549 NSCLC, in the assay with EKVX NSCLC, in the assay with SK-MEL-28 melanoma and in the assay with NCI-H522 lung was above 100 µM throughout. Besides, the TGI in the assay with OVCAR-3 ovarian and with OVCAR-8 ovarian was above 100 µM throughout.

Consider `Cc1ccc([S+](c2ccccc2)c2cc(C)ccc2C)cc1` (centres undefined), for which the TGI in the assay on SN12C renal is 46.3 µM; in the assay on A549 NSCLC, above 100 µM; in the assay with EKVX NSCLC it was above 100 µM; in the assay on NCI-H522 lung, 28.2 µM; in the assay on OVCAR-3 ovarian, above 100 µM; with OVCAR-8 ovarian, above 100 µM. In the assay with SF-295 CNS, this molecule registered a TGI of 69.1 µM.

For the molecule `C=C(C)C1Cc2c(cc(OC)c3c(=O)c4ccccc4n(C)c23)O1` (centres undefined), the TGI in the assay on HOP-92 NSCLC was above 100 µM; with SN12C renal, above 100 µM; in the assay on A549 NSCLC, above 100 µM; in the assay on EKVX NSCLC it was above 100 µM; with SK-MEL-28 melanoma, above 100 µM; in the assay with NCI-H522 lung, 34.3 µM. Further, the TGI in the assay on OVCAR-3 ovarian, in the assay with OVCAR-8 ovarian and in the assay on SF-295 CNS was above 100 µM throughout.

In the case of `c1ccc2c(c1)ccc1nc3ccccn3c12`, the TGI with HOP-92 NSCLC, with PC-3 prostate, in the assay on SN12C renal, in the assay with A549 NSCLC, in the assay with NCI/ADR-RES ovarian and in the assay on EKVX NSCLC was above 100 µM throughout. In addition, the TGI in the assay with BT-549 breast, in the assay on SK-MEL-28 melanoma, in the assay with OVCAR-3 ovarian, in the assay with OVCAR-8 ovarian and in the assay on SF-295 CNS was above 100 µM throughout.

Regarding `Cc1ccccc1C(=O)NC(O)(C(F)(F)F)C(F)(F)F`, the TGI in the assay with HOP-92 NSCLC, with MDA-MB-231 breast, in the assay on PC-3 prostate, in the assay on SN12C renal, in the assay with A549 NSCLC and with NCI/ADR-RES ovarian was above 100 µM throughout. For the same molecule, the TGI with EKVX NSCLC, with SK-MEL-28 melanoma, in the assay with NCI-H522 lung, with OVCAR-3 ovarian, in the assay with OVCAR-8 ovarian and in the assay with SF-295 CNS was above 100 µM in each case.

For the molecule `CCOC(=O)c1ncn2c1[nH]c(=O)c1ccccc12`, the TGI in the assay with SN12C renal, with A549 NSCLC, in the assay with EKVX NSCLC, in the assay with SK-MEL-28 melanoma, in the assay with NCI-H522 lung and with OVCAR-3 ovarian was above 100 µM each time. For the same molecule, the TGI in the assay with OVCAR-8 ovarian and with SF-295 CNS was above 100 µM each time.

Consider `CNC(=O)C1CCC(=O)N1CN(C(C)=O)c1ccccc1` (centres undefined), for which the TGI with HOP-92 NSCLC, in the assay on MDA-MB-231 breast, in the assay on PC-3 prostate, with SN12C renal, in the assay on A549 NSCLC and in the assay on NCI/ADR-RES ovarian was above 100 µM each time. Moreover, the TGI with EKVX NSCLC, in the assay with SK-MEL-28 melanoma, in the assay on NCI-H522 lung, in the assay with OVCAR-3 ovarian, with OVCAR-8 ovarian and in the assay on SF-295 CNS was above 100 µM each time.
